Measurements taken from PMC9652379, “Safety evaluations of a synthetic antimicrobial peptide administered intravenously in rats and dogs” (Scientific Reports, 2022).
Converted amounts (≈) assume the structure as drawn. Positions of bridges follow the written chain, without caps; N, C: chain ends. Non-standard residues stand in square brackets, D forms with d. Residues, ends and D or L forms follow the SMILES beside them. Chains are numbered I, II in the order given. βAla = NCCC(=O)O

Tests used:
Sprague Dawley rats [1] = settings: rat, in vivo, iv, 15 mg/kg/day
Protocol: Necroscopy and histopathological examinations were performed at the end of treatment and at the end of the recovery period. Macroscopic changes were recorded in the kidneys (pale coloration and a reddened medullary area in almost all males and females from groups on 9 and 15 mg/kg/day) and bladder (distended in a few males of all treated groups). These findings were also recorded at the end of the recovery period affecting all animals dose at 15 mg/kg/day (pale coloration of the kidneys) or one male (distended urinary bladder). […] At the end of the recovery period the mean weight of the spleen (both sexes) and the mean weight of the kidneys and ovaries (females) from animals treated at 15 mg/kg/day were still higher with respect to control group. […] For 15 mg/kg/day group, the changes observed in the kidneys, bone marrow, uterine cervix and vagina were not reversible (see Supplementary Material for images and number of animals affected by these irreversible abnormalities), while the rest of the findings were fully (femorotibial growth plate and duodenum) or partially recovered (heart, ovaries and mammary glands) after 2 weeks of recovery period.
All animals underwent necropsy. Descriptions of all macroscopic abnormalities were recorded. […]

K. pneumoniae = settings: cited from earlier work
[2] = Toxicokinetics in rats, 4 weeks daily iv slow bolus; format: in vivo, rat; settings: for AUC(0-t) / Cmax / tmax: iv
Protocol: SET-M33 was administered intravenously as a slow bolus to Sprague Dawley rats once daily for 4 weeks at 0 (vehicle only), 5, 9 and 15 mg/kg/day (control group 3 animals/sex, treated groups 6 animals/sex). Blood samples were taken on day 1 and day 28. […] Mean plasma SET-M33 exposure increased in parallel with dose in males and females. […] Mean time to maximum plasma SET-M33 concentration (tmax) was 5 min post-dose for both times and sexes as expected for intravenous bolus administration. […] On day 28, female intermediate dose AUC0-t ratio was 1.7 times the theoretical ratio.
Blood samples were drawn from the retro-orbital sinus under light isoflurane anaesthesia for determination of plasma SET-M33 levels. The samples were taken on days 1 and 28 of treatment at the following times: control group: pre-dose and 30 min; 5, 9 and 15 mg/kg/day-group: pre-dose, 5, 15, 30, 60 min and 24 h after administration. Blood samples were collected into polypropylene test tubes containing lithium heparin anticoagulant and kept at room temperature for no longer than 60 min until centrifuging (1600 g for 10 min at 2–8 °C). The plasma obtained from each sample was transferred to a fresh polypropylene test tubes, immediately frozen in dry ice and stored at − 20 °C ± 5. Plasma concentrations of SET-M33 were measured by a previously validated LC–MS/MS method. Toxicokinetic parameters were determined for mean plasma concentrations at each dose level and time point, according to the validated method and with WinNonlin software, version 6.3, in the Phoenix Suite version 1.3 (Pharsight Corporation, Mountain View, CA, USA).

Sprague Dawley rats [3] = test: Four-week toxicity study in rats: clinical biochemistry and urinalysis; format: in vivo, rat; settings: mean ± SD
Protocol: The purpose of this study was to evaluate the toxic effects of SET-M33 when administered intravenously to Sprague Dawley rats for 4 weeks. Recovery was evaluated during a 14-day drug-free period. The peptide was administered once a day at three dose levels at 5, 9 and 15 mg/kg/day, and the control group was treated with the vehicle (ten males and ten females per group which were sacrificed after 4 weeks for clinical and necroscopy analyses; five males and five females for the control and 15 mg/kg/day groups which were sacrificed after the 2 weeks recovery period). The higher dose was selected on the basis of the DRF study (above) in which evident toxicity was recorded at the dose of 20 mg/kg. The efficacy dose in mouse is 5 mg/kg[24]. The lowest dose of this test is approximately twice the equivalent efficacy dose in rat (using body surface area) and the intermediate dose is approximately the geometric mean of the other two.
Blood samples were collected into lithium heparin tubes. The following parameters were determined using a Cobas 6000 Analyzer (Roche): glucose (Gluc), urea (Urea), creatinine (Creat), bilirubin, total (Bili), cholesterol, total (Chol), triglycerides (Trig), aspartate aminotransferase (AST), alanine aminotransferase (ALT), alkaline phosphatase (ALP), creatine kinase (CK), gamma-glutamyl-transferase (gGT), calcium (Ca), inorganic phosphorus (Phos), sodium (Na), potassium (K), chloride (Cl), albumin (Alb), globulin (calculated from total protein and Alb%) (Glob), total protein (Total Prot), album/globulin ratio (A/G ratio).
Urine was collected overnight into specimen vials (animals were placed in metabolism cages at the end of the working day preceding the day of urine collection). The following parameters were determined using a Cobas u 411 semi-automated test strip analyser (Roche): specific gravity (SG1), protein (Prot), ketones (Keto), volume (Vol), creatinine (U-Creat), bilirubin (Bili), colour (Col), glucose (U-Gluc), erythrocytes (U-RBC), appearance (App), nitrite (Nite), pH, leukocytes (U-WBC).

[4] = female, Sprague Dawley, rat, in vivo, 5 mg/kg/day
[5] = male, Sprague Dawley, rat, in vivo, 5 mg/kg/day
[6] = male, Sprague Dawley, rat, in vivo, 9 mg/kg/day
[7] = male, Sprague Dawley, rat, in vivo, 15 mg/kg/day

Structure (SMILES): CC[C@H](C)[C@H](NC(=O)[C@H](CCCCN)NC(=O)[C@@H](N)CCCCN)C(=O)N[C@@H](CCCNC(=N)N)C(=O)N[C@H](C(=O)N[C@@H](CCCNC(=N)N)C(=O)N[C@@H](CC(C)C)C(=O)N[C@@H](CO)C(=O)N[C@@H](C)C(=O)NCCCC[C@H](NC(=O)[C@H](C)NC(=O)[C@H](CO)NC(=O)[C@H](CC(C)C)NC(=O)[C@H](CCCNC(=N)N)NC(=O)[C@@H](NC(=O)[C@H](CCCNC(=N)N)NC(=O)[C@@H](NC(=O)[C@H](CCCCN)NC(=O)[C@@H](N)CCCCN)[C@@H](C)CC)C(C)C)C(=O)NCCCC[C@H](NC(=O)[C@H](CCCCNC(=O)[C@H](C)NC(=O)[C@H](CO)NC(=O)[C@H](CC(C)C)NC(=O)[C@H](CCCNC(=N)N)NC(=O)[C@@H](NC(=O)[C@H](CCCNC(=N)N)NC(=O)[C@@H](NC(=O)[C@H](CCCCN)NC(=O)[C@@H](N)CCCCN)[C@@H](C)CC)C(C)C)NC(=O)[C@H](C)NC(=O)[C@H](CO)NC(=O)[C@H](CC(C)C)NC(=O)[C@H](CCCNC(=N)N)NC(=O)[C@@H](NC(=O)[C@H](CCCNC(=N)N)NC(=O)[C@@H](NC(=O)[C@H](CCCCN)NC(=O)[C@@H](N)CCCCN)[C@@H](C)CC)C(C)C)C(=O)NCCC(=O)O)C(C)C [SET-M33] (I: H-KKIRVRLSAKK[βAla]-OH / II: H-KKIRVRLSAK / III: H-KKIRVRLSA / IV: H-KKIRVRLSA; amide I:10-IV:C, I:11-II:C, II:10-III:C (inferred); N-terminus and C-terminus assumed)
- cervical and vaginal epithelial atrophy, incidence (Sprague Dawley rats [1]): 1 out of 5
- MIC50 (K. pneumoniae): 1.4 µM (≈ 6.56 µg/mL)
- MIC90 (K. pneumoniae): 2.8 µM (≈ 13.1 µg/mL)
- AUC(0-t) [2, 4]: 1218 ng·h/mL
- Cmax [2, 4]: 4103 ng/mL
- AUC(0-t) ([2]; female, Sprague Dawley, rat, in vivo, 5 mg/kg/day, AUC0-t): 663 ng·h/mL
- Cmax ([2]; female, Sprague Dawley, rat, in vivo, 5 mg/kg/day, Cmax): 2110 ng/mL
- AUC(0-t) [2, 5]: 938 ng·h/mL
- Cmax [2, 5]: 3017 ng/mL
- tmax [2, 5]: 5 min
- AUC(0-t) ([2]; male, Sprague Dawley, rat, in vivo, 5 mg/kg/day, AUC0-t): 692 ng·h/mL
- Cmax ([2]; male, Sprague Dawley, rat, in vivo, 5 mg/kg/day, Cmax): 2230 ng/mL
- AUC(0-t) [2, 6]: 1819 ng·h/mL
- Cmax [2, 6]: 5890 ng/mL
- tmax [2, 6]: 5 min
- AUC(0-t) ([2]; male, Sprague Dawley, rat, in vivo, 9 mg/kg/day, AUC0-t): 1430 ng·h/mL
- Cmax ([2]; male, Sprague Dawley, rat, in vivo, 9 mg/kg/day, Cmax): 4560 ng/mL
- AUC(0-t) [2, 7]: 2734 ng·h/mL
- Cmax [2, 7]: 8170 ng/mL
- tmax [2, 7]: 5 min
- AUC(0-t) ([2]; male, Sprague Dawley, rat, in vivo, 15 mg/kg/day, AUC0-t): 2240 ng·h/mL
- Cmax ([2]; male, Sprague Dawley, rat, in vivo, 15 mg/kg/day, Cmax): 6040 ng/mL
- mean tmax ([2]; rat, in vivo): 5 min
- quantifiable plasma concentrations until, post-dose ([2]; rat, in vivo): 1 h
- intermediate dose AUC0-t ratio relative to the theoretical ratio ([2]; rat, in vivo, 9 mg/kg/day): 1.7 times
- tmax ([2]; rat, in vivo, 5 mg/kg/day): 5 min
- tmax ([2]; rat, in vivo, 9 mg/kg/day): 5 min
- tmax ([2]; rat, in vivo, 15 mg/kg/day): 5 min
- mean AUC0-t ratio, low vs. intermediate dose (theoretical ratio 1.8) ([2]; rats, 5 vs 9 mg/kg/day, day 1): 2
- mean Cmax ratio, low vs. intermediate dose (theoretical ratio 1.8) ([2]; rats, 5 vs 9 mg/kg/day, day 1): 1.7–2
- mean AUC0-t ratio, low vs. high dose (theoretical ratio 3) ([2]; rats, 5 vs 15 mg/kg/day, day 1): 2.9–3.2
- mean Cmax ratio, low vs. high dose (theoretical ratio 3) ([2]; rats, 5 vs 15 mg/kg/day, day 1): 2.7
- Phos, inorganic phosphorus (Sprague Dawley rats [3]; female rats, 9 mg/kg/day iv, week 4 of treatment): 1.49 ± 0.415 mmol/L
- Phos, inorganic phosphorus (Sprague Dawley rats [3]; female rats, 15 mg/kg/day iv 4 weeks, week 2 of recovery): 2.04 ± 0.616 mmol/L
- Phos, inorganic phosphorus (Sprague Dawley rats [3]; male rats, 5 mg/kg/day iv, week 4 of treatment): 1.97 ± 0.309 mmol/L
- Phos, inorganic phosphorus (Sprague Dawley rats [3]; male rats, 9 mg/kg/day iv, week 4 of treatment): 2.26 ± 0.393 mmol/L
- Phos, inorganic phosphorus (Sprague Dawley rats [3]; male rats, 15 mg/kg/day iv 4 weeks, week 2 of recovery): 2.83 ± 1.37 mmol/L
